Assay results taken from article PMC10360995, “Discovery of 3-((3-amino-1H-indazol-4-yl)ethynyl)-N-(4-((4-ethylpiperazin-1-yl)methyl)-3-(trifluoromethyl)phenyl)benzamide (AKE-72), a potent Pan-BCR-ABL inhibitor including the T315I gatekeeper resistant mutant” (Journal of Enzyme Inhibition and Medicinal Chemistry, 2023).
Like-named read-outs stand apart in the source and are kept apart here.

How the values were obtained:
RPMI-8226 = experiment: NCI SRB anti-leukemic assay
K-562 [1] = experiment: NCI SRB anti-leukemic assay
CCRF-CEM = experiment: NCI SRB anti-leukemic assay
HL-60(TB) [2] = experiment: cells; settings: Homo sapiens
BCR-ABL^WT = BCR-ABL^WT (Homo sapiens, UniProt P00519); settings: cited from earlier work
Sequence of BCR-ABL^WT (P00519 whole entry): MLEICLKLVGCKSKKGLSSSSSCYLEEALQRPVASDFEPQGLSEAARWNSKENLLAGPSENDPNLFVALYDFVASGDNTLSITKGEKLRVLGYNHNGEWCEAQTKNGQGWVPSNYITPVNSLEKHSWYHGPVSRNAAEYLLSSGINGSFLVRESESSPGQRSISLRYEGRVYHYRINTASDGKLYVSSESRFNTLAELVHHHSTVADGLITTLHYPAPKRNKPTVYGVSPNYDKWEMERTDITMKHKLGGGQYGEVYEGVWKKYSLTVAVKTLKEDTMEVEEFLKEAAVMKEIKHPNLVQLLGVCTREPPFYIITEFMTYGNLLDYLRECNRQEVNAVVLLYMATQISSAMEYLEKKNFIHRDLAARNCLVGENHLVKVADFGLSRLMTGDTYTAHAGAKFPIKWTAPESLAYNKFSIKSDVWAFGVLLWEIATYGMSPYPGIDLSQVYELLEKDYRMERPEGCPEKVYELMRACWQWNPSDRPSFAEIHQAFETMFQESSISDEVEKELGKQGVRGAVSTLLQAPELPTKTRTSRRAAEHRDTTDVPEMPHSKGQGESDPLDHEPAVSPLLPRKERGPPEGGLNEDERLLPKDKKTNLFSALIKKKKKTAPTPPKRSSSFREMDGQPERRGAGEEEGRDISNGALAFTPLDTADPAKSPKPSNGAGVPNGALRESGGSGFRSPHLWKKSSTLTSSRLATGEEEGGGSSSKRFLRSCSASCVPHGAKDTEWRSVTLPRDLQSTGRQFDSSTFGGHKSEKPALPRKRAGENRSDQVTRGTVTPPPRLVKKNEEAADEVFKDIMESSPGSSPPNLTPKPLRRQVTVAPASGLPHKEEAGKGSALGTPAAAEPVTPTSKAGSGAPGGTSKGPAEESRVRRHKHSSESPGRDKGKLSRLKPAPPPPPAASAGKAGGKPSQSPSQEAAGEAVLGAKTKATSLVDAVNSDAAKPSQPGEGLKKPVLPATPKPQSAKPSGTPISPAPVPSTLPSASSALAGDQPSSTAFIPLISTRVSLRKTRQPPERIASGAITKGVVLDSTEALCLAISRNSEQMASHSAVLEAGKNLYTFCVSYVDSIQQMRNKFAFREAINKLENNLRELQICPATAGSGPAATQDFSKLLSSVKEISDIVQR

K-562 [3] = tested on: K-562; parameters: method as in PMID 32961435; settings: cited from earlier work
SR = experiment: NCI SRB anti-leukemic assay
MOLT-4 = experiment: NCI SRB anti-leukemic assay
HL-60(TB) [4] = tested on: HL-60(TB)
CML = settings: cited from earlier work
Ba/F3 mouse pro-B cells = experiment: Cellular proliferation assay; format: cell-based; settings: BaF3, read-out: GI50 Ba/F3 (mouse pro-B cell)
Excerpt: We also tested AKE-72 against BCR-ABL-positive and BCR-ABL-negative cell lines.
1.8. Cytochrome P450 Assay
The binding site was defined based

Nc1n[nH]c2cccc(C#Cc3cccc(NC(=O)c4ccc(N5CCOCC5)c(C(F)(F)F)c4)c3)c12 [I, reference compound]
GI50 (RPMI-8226; Homo sapiens, RPMI-8226, read-out: GI50 RPMI-8226): 1980 nM
CC50 (RPMI-8226; Homo sapiens, RPMI-8226, read-out: LC50 (half-maximal lethal concentration) RPMI-8226): > 100 µM
TGI (total growth inhibition) RPMI-8226 (RPMI-8226; five-dose assay): 6.50 µM
GI % RPMI-8226 (RPMI-8226; single dose 10 µM): L (lethal effect (% GI > 100))
GI50 (K-562 [1]; Homo sapiens, K562, read-out: GI50 K-562): < 10 nM
CC50 (K-562 [1]; Homo sapiens, K562, read-out: LC50 (half-maximal lethal concentration) K-562): > 100 µM
TGI (total growth inhibition) K-562 (K-562 [1]; five-dose assay): 13.5 µM
TGI K-562 (K-562 [1]; five-dose assay): 13.5 µM
GI % K-562 (K-562 [1]; single dose 10 µM): 97.96%
GI50 (CCRF-CEM; Homo sapiens, CCRF-CEM, read-out: GI50 CCRF-CEM): 1360 nM
CC50 (CCRF-CEM; Homo sapiens, CCRF-CEM, read-out: LC50 (half-maximal lethal concentration) CCRF-CEM): > 100 µM
TGI (total growth inhibition) CCRF-CEM (CCRF-CEM; five-dose assay): 6.58 µM
GI % CCRF-CEM (CCRF-CEM; single dose 10 µM): 9.49%
GI50 (HL-60(TB) [2]; HL-60, read-out: GI50 HL-60(TB)): 1400 nM
CC50 (HL-60(TB) [2]; HL-60, read-out: LC50 (half-maximal lethal concentration) HL-60(TB)): > 100 µM
IC50 (BCR-ABL^WT): 4.6 ± 0.6 nM
GI50 (K-562 [3]): < 10 nM
GI50 (SR; Homo sapiens, SR, read-out: GI50 SR): 2400 nM
CC50 (SR; Homo sapiens, SR, read-out: LC50 (half-maximal lethal concentration) SR): > 100 µM
TGI (total growth inhibition) SR (SR; five-dose assay): >100 µM
GI % SR (SR; single dose 10 µM): 87.42%
GI50 (MOLT-4; Homo sapiens, MOLT-4, read-out: GI50 MOLT-4): 1310 nM
CC50 (MOLT-4; Homo sapiens, MOLT-4, read-out: LC50 (half-maximal lethal concentration) MOLT-4): > 100 µM
TGI (total growth inhibition) MOLT-4 (MOLT-4; five-dose assay): 5.71 µM
GI % MOLT-4 (MOLT-4; single dose 10 µM): 92.33%
TGI (total growth inhibition) HL-60(TB) (HL-60(TB) [4]; five-dose assay): 10.5 µM
GI % HL-60(TB) (HL-60(TB) [4]; single dose 10 µM): 99.01%

Cc1ccc(NC(=O)c2ccc(CN3CCN(C)CC3)cc2)cc1Nc1nccc(-c2cccnc2)n1 [Imatinib]
long-term success rate (CML; CML, after 10 years): 83.3%
overall 5-year survival rate (CML; patients diagnosed with CML): 89%

Cc1ccc(C(=O)Nc2ccc(CN3CCN(C)CC3)c(C(F)(F)F)c2)cc1C#Cc1cnc2cccnn12 [Ponatinib, reference compound]
GI50 (Ba/F3 mouse pro-B cells): 708 ± 37 nM
